Assay results as given in patent US20230172936A1, “VCP/p97 INHIBITOR FOR THE TREATMENT OF CANCER” (Cleave Therapeutics, Inc., priority 2020, published 2023).

Tests used:
Assay in all cases: Ex-vivo cytotoxicity by Cell Titer Glo
Format in all cases: cell-based
CTG-2243 = conditions: Homo sapiens, 144 h; CTG-2243, 6 days
Method: (§1) Acute myelogenous leukemia (AML) is the most common acute leukemia in adults. A hematologic cancer, the disease is highly heterogeneous, with multiple subtypes. About 30% of AML cases harbor a FLT3/ITD mutation making the disease highly proliferative and more aggressive with a high risk of relapse.
(§2) Triplicate wells with media only and duplicate wells of vehicle (0.2% DMSO) were used as negative controls. […] To measure proliferation, untreated cells at days 0 and 6 were evaluated via Cell Titer Glo.
(§3) Protocol: • 1. AML cells were thawed and resuspended in enriched media composed of StemSpan™ Serum-Free Expansion Media (SFEM), 2% heat-inactivated FBS, StemSpan™ CC110 and recombinant human IL-3. • 2. 20,000 cells/well in 100 μL volume were plated on study day 0. • 3. […] Cells were incubated in the presence of drug for 6 days. • 5. On day 6, plates were removed from the incubator and equilibrated to room temperature for 20 minutes. 100 μL/well Cell Titer Glo was added to each well and incubated for 10 minutes before plate reading. • 6. Luminescence was recorded using Tecan Infinite M Plex plate reader.

CTG-3439 = conditions: Homo sapiens, 144 h; CTG-3439, 6 days
Method: as §1, §2, §3

CTG-2701 = conditions: Homo sapiens, 144 h; CTG-2701, 6 days
Method: as §1, §2, §3

CTG-2702 = conditions: Homo sapiens, 144 h; CTG-2702, 6 days
Method: as §1, §2, §3

CTG-2242 = conditions: Homo sapiens, 144 h; CTG-2242, 6 days
Method: as §1, §2, §3

CTG-2453 = conditions: Homo sapiens, 144 h; CTG-2453, 6 days
Method: as §1, §2, §3

CTG-2456 = conditions: Homo sapiens, 144 h; CTG-2456, 6 days
Method: as §1, §2, §3

CTG-2240 = conditions: Homo sapiens, 144 h; CTG-2240, 6 days
Method: as §1, §2, §3

CTG-2774 = conditions: Homo sapiens, 144 h; CTG-2774, 6 days
Method: as §1, §2, §3

CTG-2455 = conditions: Homo sapiens, 144 h; CTG-2455, 6 days
Method: as §1, §2, §3

CTG-2704 = conditions: Homo sapiens, 144 h; CTG-2704, 6 days
Method: as §1, §2, §3

CTG-2775 = conditions: Homo sapiens, 144 h; CTG-2775, 6 days
Method: as §1, §2, §3

CTG-2457 = conditions: Homo sapiens, 144 h; CTG-2457, 6 days
Method: as §1, §2, §3

CTG-2233 = conditions: Homo sapiens, 144 h; CTG-2233, 6 days
Method: as §1, §2, §3

CTG-2700 = conditions: Homo sapiens, 144 h; CTG-2700, 6 days
Method: as §1, §2, §3

CTG-2228 = conditions: Homo sapiens, 144 h; CTG-2228, 6 days
Method: as §1, §2, §3

CTG-2232 = conditions: Homo sapiens, 144 h; CTG-2232, 6 days
Method: as §1, §2, §3

CTG-3440 = conditions: Homo sapiens, 144 h; CTG-3440, 6 days
Method: as §1, §2, §3

CTG-2454 = conditions: Homo sapiens, 144 h; CTG-2454, 6 days
Method: as §1, §2, §3

CTG-2239 = conditions: Homo sapiens, 144 h; CTG-2239, 6 days
Method: as §1, §2, §3

CTG-3438 = conditions: Homo sapiens, 144 h; CTG-3438, 6 days
Method: as §1, §2, §3

CTG-2502 = conditions: Homo sapiens, 144 h; CTG-2502, 6 days
Method: as §1, §2, §3

CTG-2238 = conditions: Homo sapiens, 144 h; CTG-2238, 6 days
Method: as §1, §2, §3

CTG-2452 = conditions: Homo sapiens, 144 h; CTG-2452, 6 days
Method: as §1, §2, §3

CTG-2236 = conditions: Homo sapiens, 144 h; CTG-2236, 6 days
Method: as §1, §2, §3

CTG-2227 = conditions: Homo sapiens, 144 h; CTG-2227, 6 days
Method: as §1, §2, §3

CTG-2235 = conditions: Homo sapiens, 144 h; CTG-2235, 6 days
Method: as §1, §2, §3

CTG-2901 = conditions: Homo sapiens, 144 h; CTG-2901, 6 days
Method: as §1, §2, §3

CTG-2234 = conditions: Homo sapiens, 144 h; CTG-2234, 6 days
Method: as §1, §2, §3

CTG-2229 = conditions: Homo sapiens, 144 h; CTG-2229, 6 days
Method: as §1, §2, §3

For `Cc1cc2c(C(N)=O)cccc2n1-c1nc2c(c(NCc3ccccc3)n1)CCCN2` [Compound 1, 1-(4-(Benzylamino)-5,6,7,8-tetrahydropyrido[2,3-d]pyrimidin-2-yl)-2-methyl-1H-indole-4-carboxamide], the IC50 (CTG-2243) was 460 nM, the IC50 (CTG-3439) was 691 nM and the IC50 (CTG-2701) was 395 nM. The IC50 (CTG-2702) was 427 nM, the IC50 (CTG-2242) was 501 nM and the IC50 (CTG-2453) was 307 nM. For the same compound, the IC50 (CTG-2456) was 212 nM, the IC50 (CTG-2240) was 500 nM and the IC50 (CTG-2774) was 327 nM. It also gave an IC50 (CTG-2455) of 220 nM, an IC50 (CTG-2704) of 666 nM and an IC50 (CTG-2775) of 437 nM. It also gave an IC50 (CTG-2457) of 627 nM, an IC50 (CTG-2233) of 412 nM and an IC50 (CTG-2700) of 386 nM. The IC50 (CTG-2228) was 568 nM, the IC50 (CTG-2232) was 275 nM and the IC50 (CTG-3440) was 332 nM. The IC50 (CTG-2454) was 208 nM, the IC50 (CTG-2239) was 395 nM and the IC50 (CTG-3438) was 263 nM. The IC50 (CTG-2502) was 480 nM, the IC50 (CTG-2238) was 237 nM and the IC50 (CTG-2452) was 512 nM. For the same compound, the IC50 (CTG-2236) was 527 nM, the IC50 (CTG-2227) was 274 nM and the IC50 (CTG-2235) was 362 nM. It also gave an IC50 (CTG-2901) of 446 nM, an IC50 (CTG-2234) of 485 nM and an IC50 (CTG-2229) of 752 nM.
